Data on 27 compounds can be found in patent US8877769B2, “Heteroaryl-substituted urea modulators of fatty acid amide hydrolase” (Janssen Pharmaceutica NV, priority 2008, dated 2014).

Bounds are passed on as bounds.

The target of one assay is T1, Rat FAAH (Rattus norvegicus, UniProt P97612).
T1 construct: expressed in transfected cells
T1 sequence (P97612 1-579): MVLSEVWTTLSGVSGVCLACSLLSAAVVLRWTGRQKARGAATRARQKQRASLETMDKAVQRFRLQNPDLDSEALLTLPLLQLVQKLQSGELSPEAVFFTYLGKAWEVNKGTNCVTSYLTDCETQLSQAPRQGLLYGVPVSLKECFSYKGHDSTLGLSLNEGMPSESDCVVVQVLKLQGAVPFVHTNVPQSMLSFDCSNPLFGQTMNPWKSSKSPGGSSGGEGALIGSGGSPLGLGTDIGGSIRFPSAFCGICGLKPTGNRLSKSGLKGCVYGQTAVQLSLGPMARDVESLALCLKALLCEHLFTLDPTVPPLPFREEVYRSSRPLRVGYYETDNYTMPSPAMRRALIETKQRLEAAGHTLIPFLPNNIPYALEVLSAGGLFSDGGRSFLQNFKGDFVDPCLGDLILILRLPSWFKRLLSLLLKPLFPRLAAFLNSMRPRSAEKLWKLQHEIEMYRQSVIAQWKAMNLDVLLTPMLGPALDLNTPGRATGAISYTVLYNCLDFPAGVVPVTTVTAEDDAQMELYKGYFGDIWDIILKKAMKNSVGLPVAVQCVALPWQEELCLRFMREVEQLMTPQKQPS
Description: Assay Method 2: FAAH assay, 3H-anandamide hydrolysis in cell homogenate. Format: biochemical. To be noted: average of results obtained, > value = solubility limit or highest concentration tested. Here is the method:
A. Transfection of Cells with Rat FAAH
The assay mixture consisted of 50 μL of the cell homogenate, 10 μL of the test compound, and 40 μL of anandamide [1-^3H-ethanolamine] (^3H-AEA, Perkin-Elmer, 10.3 Ci/mmol), which was added last, for a final tracer concentration of 80 nM. The reaction mixture was incubated at rt for 1 h. During the incubation, 96-well Multiscreen filter plates (catalog number MAFCNOB50; Millipore, Bedford, Mass., USA) were loaded with 25 μL of activated charcoal (Multiscreen column loader, catalog number MACL09625, Millipore) and washed once with 100 μL of MeOH. […] After the 1 h incubation, 60 μL of the reaction mixture were transferred to the charcoal plates, which were then assembled on top of the DYNEX plates using Centrifuge Alignment Frames (catalog number MACF09604, Millipore). The unbound labeled ethanolamine was centrifuged through to the bottom plate (5 min at 2000 rpm), which was preloaded with the scintillant, as described above. The plates were sealed and left at rt for 1 h before counting on a Hewlett Packard TopCount.

A further assay deals with T2, FAAH (Homo sapiens, UniProt O00519).
T2 sequence (O00519 1-579): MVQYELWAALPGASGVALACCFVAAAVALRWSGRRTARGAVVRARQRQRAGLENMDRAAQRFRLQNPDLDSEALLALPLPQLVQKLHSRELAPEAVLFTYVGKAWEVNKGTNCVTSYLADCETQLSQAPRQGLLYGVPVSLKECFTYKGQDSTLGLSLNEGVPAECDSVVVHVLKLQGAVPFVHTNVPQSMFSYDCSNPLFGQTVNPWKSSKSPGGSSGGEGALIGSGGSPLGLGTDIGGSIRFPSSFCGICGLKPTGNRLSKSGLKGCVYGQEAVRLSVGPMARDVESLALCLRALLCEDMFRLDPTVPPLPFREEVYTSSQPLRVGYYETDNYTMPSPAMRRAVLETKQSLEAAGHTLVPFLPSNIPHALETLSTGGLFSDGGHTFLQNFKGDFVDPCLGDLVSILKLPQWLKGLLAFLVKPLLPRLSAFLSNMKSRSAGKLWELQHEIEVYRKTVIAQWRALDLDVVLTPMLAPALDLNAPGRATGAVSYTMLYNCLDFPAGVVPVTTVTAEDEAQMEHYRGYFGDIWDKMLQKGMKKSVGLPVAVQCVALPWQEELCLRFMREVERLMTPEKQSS
Description: Assay Method 1: FAAH assay, 3H-anandamide hydrolysis in cell homogenate.

On Rat FAAH, `O=C(Nc1cnc2cccnn12)N1CCN(Cc2cccc(Oc3ccc(Cl)cc3)c2)CC1` [Example 1, 4-[3-(4-Chloro-phenoxy)-benzyl]-piperazine-1-carboxylic acid imidazo[1,2-b]pyridazin-3-ylamide] displayed an IC50 of 16 nM.
With `O=C(Nc1cnc2cccnn12)N1CCN(Cc2ccc(Cl)c(Cl)c2)CC1` [Example 2, 4-(3,4-Dichloro-benzyl)-piperazine-1-carboxylic acid imidazo[1,2-b]pyridazin-3-ylamide], the values for the half-inhibitory concentration (IC50) against FAAH and against Rat FAAH were 62 nM and 110 nM, respectively.
For `O=C(Nc1cnc2cccnn12)N1CCN(Cc2ccc3c(c2)OC(F)(F)O3)CC1` [Example 3, 4-(2,2-Difluoro-benzo[1,3]dioxol-5-ylmethyl)-piperazine-1-carboxylic acid imidazo[1,2-b]pyridazin-3-ylamide] the same measures were 230 nM and 160 nM.
For `O=C(Nc1cnc2cccnn12)N1CCN(Cc2ccc(OC(F)(F)F)c(Cl)c2)CC1` [Example 4, 4-(3-Chloro-4-trifluoromethoxy-benzyl)-piperazine-1-carboxylic acid imidazo[1,2-b]pyridazin-3-ylamide] the same measures were 54 nM and 30 nM.
Take `O=C(Nc1noc2ncccc12)N1CCN(Cc2ccc3c(c2)OC(F)(F)O3)CC1` [Example 5, 4-(2,2-Difluoro-benzo[1,3]dioxol-5-ylmethyl)-piperazine-1-carboxylic acid isoxazolo[5,4-b]pyridin-3-ylamide]: the figures for the half-maximal inhibitory concentration (IC50) against FAAH and against Rat FAAH were 1600 nM and 8000 nM, respectively.
`O=C(Nc1noc2ncccc12)N1CCN(Cc2ccc(Br)c(F)c2)CC1` [Example 6, 4-(4-Bromo-3-fluoro-benzyl)-piperazine-1-carboxylic acid isoxazolo[5,4-b]pyridin-3-ylamide]: at Rat FAAH, the IC50 was > 10000 nM.
On to `O=C(Nc1noc2ncccc12)N1CCN(Cc2ccc3c(c2)OCO3)CC1` [Example 7, 4-Benzo[1,3]dioxol-5-ylmethyl-piperazine-1-carboxylic acid isoxazolo[5,4-b]pyridin-3-ylamide], for which the IC50 at FAAH and against Rat FAAH was > 10000 nM throughout.
Take `O=C(Nc1noc2ncccc12)N1CCN(Cc2cccc(Oc3ccccc3Cl)c2)CC1` [Example 8, 4-[3-(2-Chloro-phenoxy)-benzyl]-piperazine-1-carboxylic acid isoxazolo[5,4-b]pyridin-3-ylamide]: the results for the IC50 against FAAH and on Rat FAAH were 1500 nM and 8000 nM, respectively.
For `O=C(Nc1noc2ncccc12)N1CCN(Cc2ccc3cc[nH]c3c2)CC1` [Example 9] the same measures were > 10000 nM and > 10000 nM.
Take `O=C(Nc1noc2ncccc12)N1CCN(Cc2cccc(Oc3ccc(Cl)cc3)c2)CC1` [Example 20, 4-[3-(4-Chloro-phenoxy)-benzyl]-piperazine-1-carboxylic acid isoxazolo[5,4-b]pyridin-3-ylamide]: half-maximal inhibition against Rat FAAH (IC50) required 7 nM.
With `O=C(Nc1noc2ncccc12)N1CCN(Cc2ccc3ccccc3c2)CC1` [Example 29, 4-Naphthalen-2-ylmethyl-piperazine-1-carboxylic acid isoxazolo[5,4-b]pyridin-3-ylamide], at FAAH, 370 nM corresponded to half-maximal inhibition (IC50).
Compound `O=C(Nc1noc2ccncc12)N1CCN(Cc2cccc(Oc3ccc(Cl)cc3)c2)CC1` [Example 40, 4-[3-(4-Chloro-phenoxy)-benzyl]-piperazine-1-carboxylic acid isoxazolo[4,5-c]pyridin-3-ylamide] had an IC50 at Rat FAAH of 40 nM.
Same read-out and setting: under `O=C(Nc1noc2cccnc12)N1CCN(Cc2cccc(Oc3ccc(Cl)cc3)c2)CC1` [Example 41, 4-[3-(4-Chloro-phenoxy)-benzyl]-piperazine-1-carboxylic acid isoxazolo[4,5-b]pyridin-3-ylamide] stands 17 nM; under `O=C(Nc1cccc2cn[nH]c12)N1CCN(Cc2cccc(Oc3ccc(Cl)cc3)c2)CC1` [Example 48, 4-[3-(4-Chloro-phenoxy)-benzyl]-piperazine-1-carboxylic acid (1H-indazol-7-yl)-amide], 3000 nM.
With `O=C(Nc1cccc2cn[nH]c12)N1CCN(Cc2ccc3c(c2)OC(F)(F)O3)CC1` [Example 49, 4-(2,2-Difluoro-benzo[1,3]dioxol-5-ylmethyl)-piperazine-1-carboxylic acid (1H-indazol-7-yl)-amide], on FAAH, the 50% inhibitory concentration (IC50) was > 10000 nM.
For the compound `O=C(Nc1ccc2nccn2c1)N1CCN(Cc2cccc(Oc3ccc(Cl)cc3)c2)CC1` [Example 50, 4-[3-(4-Chloro-phenoxy)-benzyl]-piperazine-1-carboxylic acid imidazo[1,2-a]pyridin-6-ylamide], half-maximal inhibition against Rat FAAH (IC50) required 1200 nM.
On the same count and under the same terms, as for `O=C(Nc1cnc2ccccn12)N1CCN(Cc2cccc(Oc3ccc(Cl)cc3)c2)CC1` [Example 57, 4-[3-(4-Chloro-phenoxy)-benzyl]-piperazine-1-carboxylic acid imidazo[1,2-a]pyridin-3-ylamide], the figure is 98 nM; as for `O=C(Nc1cnc2ccccn12)N1CCN(Cc2ccc3c(c2)OC(F)(F)O3)CC1` [Example 58, 4-(2,2-Difluoro-benzo[1,3]dioxol-5-ylmethyl)-piperazine-1-carboxylic acid imidazo[1,2-a]pyridin-3-ylamide], 2000 nM; as for `O=C(Nc1cnc2[nH]ccc2c1)N1CCN(Cc2cccc(Oc3ccc(Cl)cc3)c2)CC1` [Example 60, 4-[3-(4-Chloro-phenoxy)-benzyl]-piperazine-1-carboxylic acid (1H-pyrrolo[2,3-b]pyridin-5-yl)-amide], 16 nM.
On Rat FAAH, `Cc1nc2cc(NC(=O)N3CCN(Cc4cccc(Oc5ccc(Cl)cc5)c4)CC3)ccc2o1` [Example 63, 4-[3-(4-Chloro-phenoxy)-benzyl]-piperazine-1-carboxylic acid (2-methyl-benzooxazol-5-yl)-amide] returned a 50% inhibitory concentration (IC50) of 120 nM.
For `O=C(Nc1nc2ccccc2o1)N1CCN(Cc2cccc(Oc3ccc(Cl)cc3)c2)CC1` [Example 66, 4-[3-(4-Chloro-phenoxy)-benzyl]-piperazine-1-carboxylic acid benzooxazol-2-ylamide], the midpoint of inhibition against FAAH, the IC50, lay at 880 nM.
With `O=C(Nc1cccc2nccn12)N1CCN(Cc2cccc(Oc3ccc(Cl)cc3)c2)CC1` [Example 69, 4-[3-(4-Chloro-phenoxy)-benzyl]-piperazine-1-carboxylic acid imidazo[1,2-a]pyridin-5-ylamide], half-maximal inhibition at Rat FAAH (IC50) required 6 nM.
On the same count and under the same terms, as for `O=C(Nc1ccn2ccnc2c1)N1CCN(Cc2cccc(Oc3ccc(Cl)cc3)c2)CC1` [Example 72, 4-[3-(4-Chloro-phenoxy)-benzyl]-piperazine-1-carboxylic acid imidazo[1,2-a]pyridin-7-ylamide], the figure is 660 nM.
Still for that read-out and setting: under `O=C(Nc1cc2nccn2cn1)N1CCN(Cc2cccc(Oc3ccc(Cl)cc3)c2)CC1` [Example 74, 4-[3-(4-Chloro-phenoxy)-benzyl]-piperazine-1-carboxylic acid imidazo[1,2-c]pyrimidin-7-ylamide] stands 500 nM; under `O=C(Nc1ccn2ccnc2n1)N1CCN(Cc2cccc(Oc3ccc(Cl)cc3)c2)CC1` [Example 75, 4-[3-(4-Chloro-phenoxy)-benzyl]-piperazine-1-carboxylic acid imidazo[1,2-a]pyrimidin-7-ylamide], 830 nM; under `O=C(Nc1ccnc2nccn12)N1CCN(Cc2cccc(Oc3ccc(Cl)cc3)c2)CC1` [Example 76, 4-[3-(4-Chloro-phenoxy)-benzyl]-piperazine-1-carboxylic acid imidazo[1,2-a]pyrimidin-5-ylamide], 31 nM.
Still for that read-out and setting: under `O=C(Nc1nocc1Cl)N1CCN(Cc2cccc(Oc3ccc(Cl)cc3)c2)CC1` [Example 85, 4-[3-(4-Chloro-phenoxy)-benzyl]-piperazine-1-carboxylic acid (4-chloro-isoxazol-3-yl)-amide] stands 22 nM.
